Assay results from patent EP0595183B1, “Hydantoin derivatives, salts thereof and maillard reaction inhibitors comprising the same” (SANWA KAGAKU KENKYUSHO CO., LTD., priority 1992, dated 1994).

Tests used:
rats = assay: 4 week subacute toxicity by oral administration; format: in vivo; conditions: rat (male)
Text: (§1) Acute and 4 week subacute toxicities of exemplar compounds according to the invention were checked by oral administration thereof and using rats.

[1] = system: bovine serum albumin (BSA); assay: Inhibition of fluorescence development (Maillard reaction products) in BSA/fructose incubation; format: biochemical; conditions: compound 5mM, BSA 10mg/ml, fructose 400mM, pH 7.4, 20% DMSO, 37°C for 24 hours; fluorescence ex 350nm / em 428nm
Description: A testing or control compound (5mM), bovine serum albumin (BSA, 10mg/ml) and fructose (400mM) were dissolved in […] Na-phosphate buffer (pH 7.4) containing 20% DMSO. The mixture was incubated at 37°C for 24 hours.
The incubated mixture was diluted to 10 folds in volume with distilled water and measured fluorescense intensity at excitation wavelength of 350nm and emission wavelength of 428nm with a HITACHI F-4010 spectrofluorometer. The inhibition ratio of fluorescense development was estimated with the following equation. Inhibition (%) = {[F1-F3-F4)- (F2-F3-F4)]/(F1-F3-F4)} x 100 [formula] wherein, Inhibition : Inhibition ratio, F1 : Fluorescense intensity of the solution containing no compound, F2 : Fluorescense intensity of the solution containing the compound, F3 : Fluorescense intensity of the solution containing only BSA, and F4 : Fluorescense intensity of the solution containing only fructose.

BSA = assay: Inhibition of cross-linking of proteins (SDS-PAGE), BSA with fructose; format: biochemical; conditions: Protein BSA 10mg/ml, compound 5mM, fructose 400mM, pH 7.4, 37°C for 7 days
Description: (§2) A testing or control compound (5mM), fructose (400mM) and a protein of either BSA (10mg/ml) or lysozyme (10mg/ml) were dissolved in 0.5M Na-phosphate buffer (pH 7.4). The mixture was incubated at 37°C for 7 days At the end of the reaction period, sodium dodecyl sulfonate-polyacrylamide gel electrophoresis (SDS-PAGE) was carried out with using aliquots of the reaction mixture. Protein band was stained with Coomassie brilliant blue and protein content of each band was determined with a SHIMAZU UV-265 scanmeter.
(§3) The inhibition ratio of cross-linking of proteins was estimated with the following equation. Inhibition ratio (%) = [(A - B)/A] x 100 [formula] wherein, A : degree of cross-link formation (containing no compound), and B : degree of cross-link formation (containing the compound).

[2] = Acute toxicity by oral administration; conditions: in vivo
Text: as §1

lysozyme = assay: Inhibition of cross-linking of proteins (SDS-PAGE), lysozyme with fructose; format: biochemical; conditions: Protein Lysozyme 10mg/ml, compound 5mM, fructose 400mM, pH 7.4, 37°C for 7 days
Description: as §2, §3

SMILES: N=C(N)NN [Aminoguanidine, reference compound]
- Non-toxic dose (rats): 30 mg/kg
- Inhibition ratio (%) [1]: 86.9%
- Inhibition ratio (%) (BSA): 70.7%
- LD50 ([2]; rat (female)): 1300 mg/kg
- LD50 ([2]; rat (male)): 1900 mg/kg
- Inhibition ratio (%) (lysozyme): 59.3%

SMILES: NNC(=O)[C@H]1C[C@@]2(NC(=O)NC2=O)c2cc(F)ccc2O1 [Example 1, (2R,4R)-6-Fluoro-2',5'-dioxospiro[chroman-4,4'-imidazolidine]-2-carbohydrazide]
- Inhibition ratio (%) [1]: 87.3%
- LD50 ([2]; rat (female)): > 4000 mg/kg
- LD50 ([2]; rat (male)): > 4000 mg/kg

SMILES: NNC(=O)[C@H]1C[C@]2(NC(=O)NC2=O)c2cc(F)ccc2O1 [Example 2, (2R,4S)-6-Fluoro-2',5'-dioxospiro[chroman-4,4'-imidazolidine]-2-carbohydrazide]
- Inhibition ratio (%) [1]: 88.6%

SMILES: NNC(=O)[C@@H]1C[C@@]2(NC(=O)NC2=O)c2cc(F)ccc2O1 [Example 3, (2S,4R)-6-Fluoro-2',5'-dioxospiro[chroman-4,4'-imidazolidine]-2-carbohydrazide]
- Inhibition ratio (%) [1]: 88.1%

SMILES: O=C1NC(=O)[C@@]2(C[C@@H](C(=O)NNC(=O)C(F)(F)F)Oc3ccc(F)cc32)N1 [Example 7, (2S, 4S)-6-Fluoro-2',5'-dioxo-N'-trifluoroacetylspiro[chroman-4,4'-imidazolidine]-2-carbohydrazide]
- Inhibition ratio (%) [1]: 21.3%

SMILES: NNC(=O)[C@@H]1C[C@]2(NC(=O)N(N)C2=O)c2cc(F)ccc2O1 [Example 9, (2S,4S)-1'-Amino-6-fluoro-2',5'-dioxospiro[chroman-4,4'-imidazolidine]-2-carbohydrazide]
- Inhibition ratio (%) [1]: 86.6%

SMILES: NC(=O)[C@@H]1C[C@]2(NC(=O)N(N)C2=O)c2cc(F)ccc2O1 [Example 10, (2S,4S)-1'-Ainino-6-fluoro-2',5'-dioxospiro[chroman-4,4'-imidazolidine]-2-carboxamide]
- Inhibition ratio (%) [1]: 19.7%

SMILES: NNC(=O)[C@@H]1C[C@]2(NC(=O)NC2=O)c2cc(F)ccc2O1 [Reference Example 2, (2S,4S)-6 -Fluoro-2',5'-dioxospiro[chroman-4,4'-imidazolidine]-2-carbohydrazide]
- Non-toxic dose (rats): > 2000 mg/kg
- Inhibition ratio (%) [1]: 88.7%
- Inhibition ratio (%) (BSA): 88.7%
- LD50 ([2]; rat (female)): > 4000 mg/kg
- LD50 ([2]; rat (male)): > 4000 mg/kg
- Inhibition ratio (%) (lysozyme): 67.4%

SMILES: CNNC(=O)[C@@H]1C[C@]2(NC(=O)NC2=O)c2cc(F)ccc2O1 [Reference Example 3, (2S,4S)-6-Fluoro-N'-methyl-2',5'-dioxospiro[chroman-4,4'-imidazolidine]-2-carbohydrazide]
- Inhibition ratio (%) [1]: 41.6%

SMILES: O=C1NC(=O)[C@@]2(C[C@@H](C(=O)NNc3ccccc3)Oc3ccc(F)cc32)N1 [Reference Example 4, (2S,4S)-6-Fluoro-2',5'-dioxo-N'-phenylspiro[chroman-4,4'-imidazolidine]-2-carbohydrazide]
- Inhibition ratio (%) [1]: 17.8%
